# US10598672B2, “Methods and compositions for diagnosing and treating loss and/or distortion of taste or smell” (Cyrano Therapeutics, Inc., priority 2014, dated 2020)
# Key:
# Format in all cases: in vivo, human
# hyposmic patients = test: Subjective responses in smell, flavor and taste function (1-100 scale) after oral theophylline
# Source text: The term “subjective improvement” as used herein and its grammatical equivalents can refer to measurements of improvement in perception for all external odors based upon a scale of 1-100 with 100 indicating complete recovery of normal smell function with responses from 1-100 scaled appropriately. […] Subjective improvement in taste function can also be measured with changes in taste for salt, sweet, sour and bitter tastants measured on the same 1-100 scale with 100 indicating return to normal for each of the four tastants considered and responses <100 scaled consistently less.
# Thirty-one of the hyposmic patients were treated with oral theophylline with a dose range of 200-800 mg taken over a period of 2-10 months. These patients were 18 men, aged 12-78 y, 62+5 y, with six with PIHH, 10 with allergic rhinitis, one with congenital smell loss and one post anesthesia and 13 women, aged 12-67 y, 42±6 y, with four with PIHH, one with allergic rhinitis and eight with congenital smell loss. Improvement in smell function consisted of improvement in both subjective responses to oral theophylline and in olfactometry. Subjective improvement in smell function consisted of measurements of improvement in perception for all external odors based upon a scale of 1-100 with 100 indicating complete recovery of normal smell function with responses from 1-100 scaled appropriately. […] Subjective improvement in taste function was also measured with changes in taste for salt, sweet, sour and bitter tastants measured on the same 1-100 scale with 100 indicating return to normal for each of the four tastants considered and responses <100 scaled consistently less. Improvement by olfactometry was indicated by decreased DT or RT (increased sensitivity), increased ME (increased sensitivity) and changes in H consistent with decreased distortions.
# [1] = test system: patients with taste dysfunction; test: Gustometry: DT, RT, ME (and HR) for NaCl, sucrose, HCl, urea
# Procedure: Smell and taste functions under each study condition were measured by standardized psychophysical sensory testing techniques. Measurements included determination of detection thresholds (DTs), recognition thresholds (RTs), magnitude estimation (ME), and hedonic response (HR) for 4 odors (i.e., pyridine [dead fish], nitrobenzene [bitter almond], thiophene [petroleum], and amyl acetate [banana oil]) (olfactometry) and for 4 tastants (i.e., sodium chloride [salt], sucrose [sweet], hydrochloride [sour], and urea [bitter]) (gustometry). These techniques have been previously described with olfactometry confirmed in a prior controlled double-blind clinical trial. Each measurement was performed independent of any prior knowledge of response.
# Gustometry measurements included measurements of detection (DT) and recognition (RT) thresholds and magnitude estimation (ME) for four tastants [NaCl (salt), sucrose (sweet), HCl (sour) and urea (bitter)]. Abnormalities of taste function were measured by increased DT or RT above normal (decreased sensitivity) and/or decreased ME (decreased sensitivity) for one or more of the tastants presented.
# [2] = test system: patients with hyposmia and hypogeusia; test: Adverse effects during intranasal theophylline pilot study; conditions: intranasal drug use, 10 patients, 4 weeks
# Source text: We performed an open-label pilot study in patients with hyposmia and hypogeusia under the following 3 conditions: (1) before treatment, (2) after oral theophylline treatment, and (3) after intranasal theophylline treatment. Under each condition, we performed subjective evaluations of taste or smell functions, quantitative measurements of taste (gustometry) and smell (olfactometry), and measurements of serum theophylline level and body weight.
# A pilot study of intranasal theophylline treatment was then initiated among these 10 patients. This trial was an investigator initiated phase 1, open-label, single-source, controlled pilot study. Intranasal drug therapy reflected a compassionate trial of a potentially more useful therapeutic method to improve hyposmia (and hypogeusia) than oral theophylline. Before the intranasal trial, risks and benefits were explained and the patients signed an informed consent.
# Each patient delivered the theophylline dose in each naris once daily throughout the study. Patients underwent evaluation 1, 2, and 4 weeks during drug use with the same measurements used for the oral study.
# [3] = 31 patients, oral theophylline, listed as ORAL THEOPHYLLINE
# [4] = 31 patients, oral theophylline, listed as oral theophylline
# [5] = oral theophylline, scale 1-100, listed as ORAL THEOPHYLLINE
# [6] = oral theophylline, scale 1-100, listed as oral theophylline
# [7] = TH[…] (81) patients with taste dysfunction, Mean ± SEM
# [8] = after intranasal treatment vs before treatment or after oral treatment
# [9] = after oral treatment vs before treatment
structure (smiles),measurement,setting,value
Cn1c(=O)c2[nH]cnc2n(C)c1=O [theophylline],"FLAVOR FUNCTION IMPROVED, number of patients","hyposmic patients; 31 patients, oral theophylline",19
same,"FLAVOR FUNCTION NOT IMPROVED, % of patients studied","hyposmic patients; 31 patients, oral theophylline",[39] %
same,"FLAVOR FUNCTION NOT IMPROVED, number of patients","hyposmic patients; 31 patients, oral theophylline",12
same,"SMELL FUNCTION NOT IMPROVED, % of patients studied","hyposmic patients; 31 patients, oral theophylline",[39] %
same,"SMELL FUNCTION NOT IMPROVED, number of patients","hyposmic patients; 31 patients, oral theophylline",12
same,"TASTE FUNCTION IMPROVED, number of patients","hyposmic patients; 31 patients, oral theophylline",20
same,"TASTE FUNCTION NOT IMPROVED, % of patients studied","hyposmic patients; 31 patients, oral theophylline",[36] %
same,"TASTE FUNCTION NOT IMPROVED, number of patients","hyposmic patients; 31 patients, oral theophylline",11
same,"SMELL FUNCTION IMPROVED, number of patients","hyposmic patients; 31 patients, oral theophylline 200-800 mg for 2-10 months",19
same,"SMELL FUNCTION IMPROVED, % of patients studied","hyposmic patients; 31 patients, oral theophylline 200-800 mg for 2-10 months, listed as ORAL THEOPHYLLINE",[61] %
same,"SMELL FUNCTION IMPROVED, % of patients studied","hyposmic patients; 31 patients, oral theophylline 200-800 mg for 2-10 months, listed as oral theophylline",61%
same,"FLAVOR FUNCTION IMPROVED, % of patients studied",hyposmic patients; [3],[61] %
same,"TASTE FUNCTION IMPROVED, % of patients studied",hyposmic patients; [3],[64]^d %
same,"FLAVOR FUNCTION IMPROVED, % of patients studied",hyposmic patients; [4],61%
same,"TASTE FUNCTION IMPROVED, % of patients studied",hyposmic patients; [4],64%
same,"SMELL FUNCTION IMPROVED, RESPONSE RANGE","hyposmic patients; improved patients (19), scale 1-100",2-100%
same,"SMELL FUNCTION IMPROVED, RESPONSE Mean ± SEM","hyposmic patients; improved patients (19), scale 1-100, listed as ORAL THEOPHYLLINE",34 ± 6%
same,"SMELL FUNCTION IMPROVED, RESPONSE Mean ± SEM","hyposmic patients; improved patients (19), scale 1-100, listed as oral theophylline",34±6%
same,"FLAVOR FUNCTION NOT IMPROVED, RESPONSE Mean ± SEM",hyposmic patients; oral theophylline,0
same,"FLAVOR FUNCTION NOT IMPROVED, RESPONSE RANGE",hyposmic patients; oral theophylline,0%
same,"SMELL FUNCTION IMPROVED MEN, number of patients",hyposmic patients; oral theophylline,11
same,"SMELL FUNCTION NOT IMPROVED, RESPONSE Mean ± SEM",hyposmic patients; oral theophylline,0
same,"SMELL FUNCTION NOT IMPROVED, RESPONSE RANGE",hyposmic patients; oral theophylline,0%
same,"TASTE FUNCTION NOT IMPROVED, RESPONSE Mean ± SEM",hyposmic patients; oral theophylline,0
same,"TASTE FUNCTION NOT IMPROVED, RESPONSE RANGE",hyposmic patients; oral theophylline,0%
same,"FLAVOR FUNCTION IMPROVED, RESPONSE Mean ± SEM","hyposmic patients; oral theophylline, scale 1-100",43 ± 8
same,"FLAVOR FUNCTION IMPROVED, RESPONSE RANGE","hyposmic patients; oral theophylline, scale 1-100",1-100%
same,"SMELL FUNCTION IMPROVED MEN, RESPONSE RANGE","hyposmic patients; oral theophylline, scale 1-100",3-95%
same,"SMELL FUNCTION IMPROVED WOMEN, RESPONSE RANGE","hyposmic patients; oral theophylline, scale 1-100",2-100%
same,"TASTE FUNCTION IMPROVED, RESPONSE Mean ± SEM","hyposmic patients; oral theophylline, scale 1-100",47 ± 8
same,"TASTE FUNCTION IMPROVED, RESPONSE RANGE","hyposmic patients; oral theophylline, scale 1-100",3-100%
same,"SMELL FUNCTION IMPROVED MEN, RESPONSE Mean ± SEM",hyposmic patients; [5],27 ± 9%
same,"SMELL FUNCTION IMPROVED WOMEN, RESPONSE Mean ± SEM",hyposmic patients; [5],43 ± 17%
same,"SMELL FUNCTION IMPROVED MEN, RESPONSE Mean ± SEM",hyposmic patients; [6],27±9%
same,"SMELL FUNCTION IMPROVED WOMEN, RESPONSE Mean ± SEM",hyposmic patients; [6],43±17%
same,"SMELL FUNCTION IMPROVED WOMEN, number of patients","hyposmic patients; oral theophylline, listed as ORAL THEOPHYLLINE",8
same,"SMELL FUNCTION IMPROVED WOMEN, number of patients","hyposmic patients; oral theophylline, listed as oral theophylline",eight
same,"NaCl DT, Detection Threshold",[1]; [7],3.4 ± 0.2^
same,"NaCl ME, Magnitude Estimation",[1]; [7],58 ± 5
same,"NaCl RT, Recognition Threshold",[1]; [7],3.6 ± 0.2
same,"SCl DT, Detection Threshold",[1]; [7],3.6 ± 0.2
same,"SCl ME, Magnitude Estimation",[1]; [7],54 ± 5
same,"SCl RT, Recognition Threshold",[1]; [7],3.7 ± 0.3
same,"SUCROSE DT, Detection Threshold",[1]; [7],3.3 ± 0.2
same,"SUCROSE ME, Magnitude Estimation",[1]; [7],49 ± 5
same,"SUCROSE RT, Recognition Threshold",[1]; [7],3.6 ± 0.2
same,"UREA DT, Detection Threshold",[1]; [7],3.9 ± 0.3
same,"UREA ME, Magnitude Estimation",[1]; [7],54 ± 5
same,"UREA RT, Recognition Threshold",[1]; [7],3.9 ± 0.3
same,DTs and RTs for all tastants,[1]; [8],lower (more sensitive)
same,HRs for sucrose,[1]; [8],more positive (more pleasant)
same,"Hedonic responses for sodium chloride, hydrochloride, and urea",[1]; [8],more negative (more unpleasant)
same,Magnitude estimations for all tastants,[1]; [8],higher (more intense)
same,"DTs for sucrose and hydrochloride and RTs for sodium chloride, hydrochloride, and urea",[1]; [9],decreased (more sensitive)
same,HR for hydrochloride and urea,[1]; [9],increased (more unpleasant)
same,Magnitude estimations for all tastants,[1]; [9],increased (more sensitive)
same,gustometric functions,"[1]; patients with taste dysfunction, oral treatment",improving gustometric functions
same,adverse effects,[2],No adverse effects
